Source: paper PMC11139994, “Inflammation causes insulin resistance in mice via interferon regulatory factor 3 (IRF3)-mediated reduction in FAHFA levels” (Nature Communications, 2024)

Tests used:
[1] = target: T1, AIG1 (androgen induced gene 1) (Mus musculus, UniProt Q9D8B1); assay: competitive gel-based ABPP (FP-Rh) in mouse brain membrane proteome; also MS-based ABPP and in vivo target engagement; assay type: biochemical
T1 construct: endogenous AIG1 in mouse brain membrane proteome
T1 sequence (Q9D8B1 1-238): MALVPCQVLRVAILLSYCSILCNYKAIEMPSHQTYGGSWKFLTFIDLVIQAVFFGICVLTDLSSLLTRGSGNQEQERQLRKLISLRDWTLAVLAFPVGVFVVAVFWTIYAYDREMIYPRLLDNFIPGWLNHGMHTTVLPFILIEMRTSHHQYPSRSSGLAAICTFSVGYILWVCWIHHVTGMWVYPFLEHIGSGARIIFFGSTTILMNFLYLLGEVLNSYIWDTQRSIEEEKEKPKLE

ABHD6 = target: T2, ABHD6 (Mus musculus, UniProt Q8R2Y0); assay: competitive MS-based ABPP-ReDiMe (FP-biotin) in mouse brain proteome (off-target); assay type: cell-based
T2 construct: endogenous ABHD6 in mouse brain proteome
T2 sequence (Q8R2Y0 1-336): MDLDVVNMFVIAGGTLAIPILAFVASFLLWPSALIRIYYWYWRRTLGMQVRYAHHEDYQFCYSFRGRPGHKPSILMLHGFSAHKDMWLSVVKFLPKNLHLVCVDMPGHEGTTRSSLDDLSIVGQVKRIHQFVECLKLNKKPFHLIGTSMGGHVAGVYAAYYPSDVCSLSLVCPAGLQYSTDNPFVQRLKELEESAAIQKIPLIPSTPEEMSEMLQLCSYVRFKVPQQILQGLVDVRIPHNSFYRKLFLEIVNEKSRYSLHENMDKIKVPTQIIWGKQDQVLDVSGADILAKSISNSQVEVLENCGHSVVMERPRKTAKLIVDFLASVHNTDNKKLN

IC50 [1]: 1.6 nM
SMILES: CN(c1ccn(C(=O)N2CCc3ccc(Oc4ccccc4)cc3C2)n1)S(C)(=O)=O [ABD-110, N-methyl-N-(1-(7-phenoxy-1,2,3,4-tetrahydroisoquinoline-2-carbonyl)-1H-pyrazol-3-yl)methanesulfonamide]
competitive MS-based ABPP-ReDiMe (FP-biotin) in mouse brain proteome (off-target) (ABHD6): with only a few off-targets detected, including ABHD6 and several highly homologous, mouse-specific carboxylesterases (CESs)
